# In patent publication US11209421B2, “Cytidine deaminase expression level in cancer as a new therapeutic target” (CENTRE NATIONAL DE LA RECHERCHE SCIENTIFIQUE, priority 2016, dated 2021):
# Like-named read-outs stand apart in the source and are kept apart here.
# What was measured:
# [1] = test system: breast cancer cell lines (MDA-MB-231, HCC-1954, MCF-7, BT-20) and IGROV-1
# Experimental: D, Cell viability, as assessed in MTT assays on breast cancer cell lines (MDA-MB-231, HCC-1954, MCF-7, BT-20) and an ovarian cell cancer line (IGROV-1) after 96 h of treatment with 5-Aza-dC. Error bars represent the mean±SD of 3 independent experiments for IGROV-1 and 2 experiments for the other cell lines. […] The dashed lines indicate the 5-Aza-dC concentrations used in this study.
# Cell viability was carried out with 3-(4,5-dimethyl-2-thiazolyl)-2,5 diphenyl-2H-tetrazolium bromide (MTT-Life Technologies) in 96-well microplates.
# CDA mRNA = experiment: RT-qPCR analysis of the induction of CDA expression; format: cell-based, human; settings: 96 hours, 2.5 μM 5-Aza-dC
# Experimental: For evaluation of the induction of CDA expression, RNA was isolated from cell lines continuously treated with 1 or 2.5 μM of 5-Aza-2′-deoxycytidine (5-Aza-dC—Sigma Aldrich) for 96 hours.
# The procedure for real-time PCR (RT-qPCR) was as described by Gemble et al. (cf. Reference 19). In brief, total RNA was extracted from PDX tissues and from cell lines with the RNeasy Mini Kit (Qiagen). Reverse transcription was performed on 1 μg of RNA with the GoScript enzyme (Promega). The cDNA obtained was used at a dilution of 1/10 for real-time PCR with the SYBER Green supermix reagent (Biorad) in a Biorad CFX96 machine. Each sample was run in triplicate. Relative expression was determined by the 2^−ΔΔCt method. GAPDH and TBP were used as internal controls.
# CDA protein = experiment: Western blot analysis of the induction of CDA expression; format: cell-based, human; settings: HCC-1954 and IGROV-1, 1 μM 5-Aza-dC for 96 h
# Experimental: For western blotting, cells were harvested by centrifugation and lysed in 8 M urea, 50 mM Tris-HCl, pH 7.5 and 150 mM β-mercaptoethanol buffer supplemented with protease inhibitor (ThermoScientific). They were then sonicated and heated. Protein concentration was estimated with the BCA kit (Pierce) and the equivalent of 20 μg or protein per cell lysate was run on a 4-12% Bis-Tris pre-cast gel (Life Technologies). The proteins were then transferred to PVDF membranes, which were probed with the appropriate antibody. Protein bands were visualized with a CCD camera (BioRad).
# MDA-MB-468 xenograft = settings: cited from earlier work; for median tumor growth inhibition: compared to control
# MDA-MB-231 xenograft = settings: cited from earlier work
# CDA-depleted HeLa cells = experiment: Images of CDA-depleted HeLa cells 24 h after Dasatinib treatment; format: cell-based, human; settings: 24 h after 0.5 or 1 μM
# IGROV-1 cells = experiment: MTT cell viability, IGROV-1; format: cell-based, human; settings: pretreatment 96 h with 1 μM 5-Aza-dC versus untreated, then gemcitabine 72 hours
# Experimental: (§1) Cell viability was carried out with 3-(4,5-dimethyl-2-thiazolyl)-2,5 diphenyl-2H-tetrazolium bromide (MTT-Life Technologies) in 96-well microplates. The functionality of CDA was assessed by plating HCC-1954 and IGROV-1 cells at densities of 2000 and 3000 cells/well, respectively, on the day before pretreatment and at a density of 800 cells/well for control conditions. Cells were then left untreated or subjected to pretreatment with 1 μM 5-Aza-dC for 96 h. The cells were washed twice with PBS buffer, placed in fresh medium and incubated for 72 hours in the presence of various concentrations of gemcitabine, from 0.001 to 1 μM (Sigma Aldrich). The data were normalized to corresponding controls, for each condition.
# HCC-1954 cells = experiment: MTT cell viability, HCC-1954 (gemcitabine after 5-Aza-dC pretreatment); format: cell-based, human; settings: pretreatment 96 h with 1 μM 5-Aza-dC versus untreated, then gemcitabine 72 hours
# Experimental: as §1
# [2] = MDA-MB-231 xenograft mice, 70 mg/kg
smiles,measurement,setting,value
"Nc1ncn([C@H]2C[C@H](O)[C@@H](CO)O2)c(=O)n1 [5-Aza-dC, 5-Aza-2′-deoxycytidine]","toxicity (cell viability, MTT)",[1],without major toxicity
same,induction of CDA mRNA levels,CDA mRNA; 7 CDA-deficient cell lines,up to 1000 fold
same,induction of CDA transcript levels,"CDA mRNA; MDA-MB-231, HOP-92, HCC-1143 and HCC-1937 control cell lines with constitutively high CDA",two-fold
same,induction of CDA protein production,CDA protein,strongly induced the production of a functional CDA protein
Cc1c(F)c(N)c2c(=O)cc(-c3ccc(NC(=O)[C@@H](N)CCCCN)c(F)c3)oc2c1F [AFP464],tolerance,"MDA-MB-468 xenograft; MDA-MB-468 xenograft mice, 35 and 50 mg/kg",well tolerated
same,tumor growth,"MDA-MB-468 xenograft; MDA-MB-468 xenograft, 35 or 50 mg/kg i.v., compared to vehicle control",statistically significantly delayed tumor growth
same,median tumor growth inhibition,"MDA-MB-468 xenograft; MDA-MB-468 xenograft, after one cycle of treatment",57%
same,median tumor growth inhibition,"MDA-MB-468 xenograft; MDA-MB-468 xenograft, after two cycles of treatment",54%
same,tolerance,"MDA-MB-231 xenograft; MDA-MB-231 xenograft mice, 35 mg/kg",well tolerated
same,body weight loss,MDA-MB-231 xenograft; [2],up to 15%
same,death of mice during the course of treatment,MDA-MB-231 xenograft; [2],1 of 7
same,antitumor activity (inhibition),"MDA-MB-231 xenograft; MDA-MB-231 xenograft, AFP464 alone, 35 or 70 mg/kg",0%
"Cc1nc(Nc2ncc(C(=O)Nc3c(C)cccc3Cl)s2)cc(N2CCN(CCO)CC2)n1 [NSC 759877, Dasatinib]",effect on cell morphology (images),CDA-depleted HeLa cells,no effect
Nc1ccn([C@@H]2O[C@H](CO)[C@@H](O)C2(F)F)c(=O)n1 [gemcitabine],"gemcitabine resistance (cell survival, MTT)",IGROV-1 cells,significant increase in gemcitabine resistance
same,"gemcitabine resistance (cell survival, MTT)",HCC-1954 cells,significant increase in gemcitabine resistance
